Like-named read-outs stand apart in the source and are kept apart here.
Key:
H1 receptor = molecular target: T1, H1 receptor (Sus scrofa, UniProt K9IVW0); assay: histamine-induced short-circuit current (ΔIsc) in cultured airway mucus gland cells, Ussing chamber; assay type: cell-based, swine
T1 construct: Tracheal submucosal gland cells were isolated from the tracheal epithelium; endogenous in cells; host or cells: primary swine tracheal submucosal (mucus) gland cells in culture

[1] = molecular target: T2, M3 subtype muscarinic receptor (Sus scrofa, UniProt P11483); assay: ACh-induced short-circuit current (ΔIsc) in cultured airway mucus gland cells, Ussing chamber, Schild dose-ratio method; assay type: cell-based, swine; settings: for Muscarinic inhibition (pA2): Schild dose-ratio method, slope set to 1, inhibition of ACh-induced ΔIsc, pA2 = -log Ki, mean ± SEM; for effect on the cholinergic (ACh) response / antimuscarinic action: at highest drug concentration tested: cetirizine 100 μM, loratadine 30 μM (Table 1; abstract 10 μM), fexofenadine 10 μM
T2 construct: Tracheal submucosal gland cells were isolated from the tracheal epithelium; endogenous in cells; host or cells: primary swine tracheal submucosal (mucus) gland cells in culture

[2] = molecular target: muscarinic receptors in the cerebral cortex; settings: read-out: Ki against muscarinic receptors, radioligand (QNB) binding, all muscarinic subtypes, ref 16 Kubo et al.; cited from earlier work
histamine H1 receptor = settings: radioligand binding assays; ref 18 Anthes et al.; cited from earlier work
[3] = read-out: H1 receptor inhibition (~1/2 max-μM)

T1 sequence (K9IVW0 1-472): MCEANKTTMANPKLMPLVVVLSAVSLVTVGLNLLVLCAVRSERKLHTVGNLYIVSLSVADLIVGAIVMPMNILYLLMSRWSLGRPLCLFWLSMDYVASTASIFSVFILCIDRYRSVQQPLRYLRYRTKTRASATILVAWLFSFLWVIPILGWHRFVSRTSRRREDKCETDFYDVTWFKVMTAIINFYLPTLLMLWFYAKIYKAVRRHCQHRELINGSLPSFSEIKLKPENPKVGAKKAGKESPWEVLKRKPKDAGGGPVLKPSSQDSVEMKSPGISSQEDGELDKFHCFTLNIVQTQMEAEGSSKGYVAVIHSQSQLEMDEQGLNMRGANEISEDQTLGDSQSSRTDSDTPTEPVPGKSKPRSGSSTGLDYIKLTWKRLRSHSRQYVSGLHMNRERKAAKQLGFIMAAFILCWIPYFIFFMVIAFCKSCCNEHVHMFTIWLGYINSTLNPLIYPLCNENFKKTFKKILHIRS
T2 sequence (P11483 whole entry): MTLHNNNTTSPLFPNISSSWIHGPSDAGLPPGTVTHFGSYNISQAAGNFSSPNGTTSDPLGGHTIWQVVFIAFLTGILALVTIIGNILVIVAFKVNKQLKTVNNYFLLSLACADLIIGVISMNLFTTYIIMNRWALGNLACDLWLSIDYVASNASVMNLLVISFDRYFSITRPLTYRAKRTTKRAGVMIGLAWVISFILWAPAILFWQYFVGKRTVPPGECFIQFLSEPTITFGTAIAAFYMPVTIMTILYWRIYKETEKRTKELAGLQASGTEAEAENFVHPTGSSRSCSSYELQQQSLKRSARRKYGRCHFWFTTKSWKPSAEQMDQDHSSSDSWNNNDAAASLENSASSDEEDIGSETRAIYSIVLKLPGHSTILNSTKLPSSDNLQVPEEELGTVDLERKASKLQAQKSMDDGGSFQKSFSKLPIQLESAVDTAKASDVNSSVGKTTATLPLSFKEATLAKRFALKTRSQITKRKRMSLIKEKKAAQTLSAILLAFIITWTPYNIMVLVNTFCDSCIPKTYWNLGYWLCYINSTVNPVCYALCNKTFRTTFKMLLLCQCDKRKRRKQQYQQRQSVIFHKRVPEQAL

NCCc1c[nH]cn1 [histamine]
maximum increase in current (ΔIsc) (H1 receptor): 19 ± 1 μA/cm^2

CC(C)(C(=O)O)c1ccc(C(O)CCCN2CCC(C(O)(c3ccccc3)c3ccccc3)CC2)cc1 (centres unmarked) [Fexofenadine]
IC50 (H1 receptor; H1 receptor inhibition (~1/2 max-μM)): 0.25 µM

COc1ccccc1CNCCCCCCNCCCCCCCCNCCCCCCNCc1ccccc1OC [Methoctramine]
Kb [1]: 2.51 µM | Muscarinic inhibition (pA2) [1]: 5.6

OCCOCCN1CCN(C(c2ccccc2)c2ccc(Cl)cc2)CC1 (centres unmarked) [Hydroxyzine]
IC50 (H1 receptor; [3]): 0.14 µM | Kb [1]: 15.8 µM | Ki ([1]; M3 muscarinic receptor induced ΔIsc, from Schild analysis, read-out: estimated Ki for inhibition of muscarinic receptors): 15 µM | Muscarinic inhibition (pA2) [1]: 4.8 | Ki [2]: 3.8 µM | Kb (histamine H1 receptor): 10 nM

CC(=O)OCC[N+](C)(C)C [ACh, acetylcholine]
maximum increase in current (ΔIsc) [1]: 15.5 ± 1 μA/cm^2

O=C(O)COCCN1CCN(C(c2ccccc2)c2ccc(Cl)cc2)CC1 (centres unmarked) [Cetirizine]
IC50 (H1 receptor; [3]): 0.12 µM | effect on the cholinergic (ACh) response / antimuscarinic action [1]: No effect (at 100 μM) | effect on the cholinergic (ACh) response / antimuscarinic action ([1]; listed as cetirizine): no effects
